Assay results published in patent publication US20260364068A1, “ANTIVIRAL USE OF HETEROARYL DERIVATIVE COMPOUND” (UIF (University Industry Foundation), Yonsei University, priority 2022, published 2026).

Legend:
[1] = Cell viability measurement (MTS), Vero cells; format: cell-based; conditions: monkey
Protocol: (§1) Experimental Example 3: Cell Viability Measurement
(§2) Vero cell line (VERO01WCB-1201, Ministry of Food and Drug Safety, Republic of Korea), Calu-3 cell line (KCLB #30055, Korea Cell Line Bank (KCLB), Republic of Korea), CellTiter 96® AQueous One Solution Cell Proliferation Assay kit (Promega, cat. #G3582), and Infinite M200 microplate reader (Tecan).
Vero cells were cultured at 37 °C and 5% CO2 in DMEM medium supplemented with 10% fetal bovine serum, 100 units/mL penicillin, and 100 μg/mL streptomycin.
(§3) Vero cells or Calu-3 cells were seeded in 96-well microplates and cultured for 24 hours until the cell confluency reached 20%. After the incubation, compounds were treated in DMSO at concentrations (1, 3, and 10 μM) to reach 0.5% v/v in each well, and reacted at 37 °C for 48 hours. Into each well of the incubated 96-well microplate, 3-(4,5-dimethylthiazol-2-yl)-5-(3-carboxymethoxyphenyl)-2-(4-sulfophenyl)-2H-tetrazolium salt (MTS) assay solution [CellTiter 96® AQueous One Solution Cell Proliferation Assay kit (Promega)] mixed with DMEM medium at a ratio of 1:5, was dispensed at 100 μL/well and incubated at 37 °C for 1 hour. The 490 nm and 690 nm absorbance was then measured using an Infinite M200 instrument.
(§4) The cell viability (also, referred to as cell survival rate) (%) by compound treatment was calculated using the following analysis method. The 690 nm background absorbance value was subtracted from the measured 490 nm absorbance value. Then, to obtain the cell viability of each test group, the viability of the DMSO-treated group that was not treated with the compound was set to 100% and then the relative viability 1 of each compound was calculated. Two to six repeated tests were performed to obtain the results, and the mean values of the results were categorized into the following ranges and shown in Table 5 below (A: 80% survived, B: 50-80% survived, N/A: not tested)

[2] = Cell viability measurement (MTS), Calu-3 cells; format: cell-based; conditions: human
Protocol: as §1, §2
Calu-3 cells were cultured at 37 °C and 5% CO2 in MEM medium supplemented with 10% fetal bovine serum, 2.2 g/L sodium bicarbonate, 1% 100 units/mL penicillin, and 100 μg/mL streptomycin.
as §3, §4

SMILES | viability at 48 h, 1 µM [2] | viability at 48 h, 3 µM [2] | viability at 48 h, 10 µM [2] | also measured
Fc1ccc2nc(-c3cccc(Nc4ccc(-c5cccnn5)cn4)c3)[nH]c2c1 [Example 55] | – | – | – | viability at 48 h, 1 µM [1]: > 80%; viability at 48 h, 10 µM ([1]; 10 μM): 50 to 80%
c1cc(Nc2ncc(-c3cccnn3)cn2)cc(-c2nc3ccccc3[nH]2)c1 [Example 53, N-[3-(1H-benzo[d]imidazol-2-yl)phenyl]-5-(pyridazin-3-yl)pyrimidin-2-amine] | > 80% | 50 to 80% | 50 to 80% | –
FC(F)(F)c1ccc2nc(-c3cccc(Nc4ccc(-c5ccccn5)cc4)c3)[nH]c2c1 [Example 98, N-[4-(2-pyridyl)phenyl]-3-[6-(trifluoromethyl)-1H-benzo[d]imidazol-2-yl]aniline] | 50 to 80% | – | – | –
c1cc(Nc2ccc(-c3ccncc3)cc2)cc(-c2nc3ccccc3[nH]2)c1 [Example 33, N-[3-(1H-benzo[d]imidazol-2-yl)phenyl]-4-(pyridin-4-yl)aniline] | 50 to 80% | – | – | –
FC(F)Oc1ccc2nc(-c3cccc(Nc4cnc(-c5ccccn5)cn4)c3)[nH]c2c1 [Example 300, N-(3-(6-(difluoromethoxy)-1H-benzo[d]imidazol-2-yl)phenyl)-5-(pyridin-2-yl) pyrazin-2-amine] | – | – | > 80% | –
Fc1cc2[nH]c(-c3cccc(Nc4ccc(-c5cccnn5)cc4)c3)nc2cc1C(F)(F)F [Example 104, 3-[6-fluoro-5-(trifluoromethyl)-1H-benzo[d]imidazol-2-yl]-N-(4-pyridazin-3-ylphenyl)aniline] | 50 to 80% | 50 to 80% | – | –
Fc1ccc2nc(-c3cccc(Nc4ccc(-c5ccccn5)cc4)c3)[nH]c2c1 [Example 92, 3-(6-fluoro-1H-benzo[d]imidazol-2-yl)-N-[4-(2-pyridyl)phenyl]aniline] | 50 to 80% | – | – | –
FC(F)(F)Oc1ccc2nc(-c3cccc(Nc4ccc(-c5ccccc5)nn4)c3)[nH]c2c1 [Example 6, 6-phenyl-N-(3-(6-(trifluoromethoxy)-1H-benzo[d]imidazol-2-yl)phenyl)pyridazin-3-amine] | – | – | – | viability at 48 h, 1 µM [1]: > 80%; viability at 48 h, 3 µM ([1]; 3 μM): 50 to 80%
Fc1cc2nc(-c3cccc(Nc4cnc(-c5ccncn5)cn4)c3)[nH]c2cc1F [Example 297, N-(3-(5,6-difluoro-1H-benzo[d]imidazol-2-yl)phenyl)-5-(pyrimidin-4-yl)pyrazin-2-amine] | – | – | > 80% | –
Clc1cc2[nH]c(-c3cccc(Nc4cnc(-c5ccccn5)cn4)c3)nc2cn1 [Example 301, N-(3-(6-chloro-1H-imidazo[4,5-c]pyridin-2-yl)phenyl)-5-(pyridin-2-yl)pyrazin-2-amine] | – | – | > 80% | –
FC(F)(F)c1cc2[nH]c(-c3cccc(Nc4ncc(-c5cccnn5)cn4)c3)nc2cn1 [Example 103, 5-pyridazin-3-yl-N-[3-[6-(trifluoromethyl)-1H-imidazo[4,5-c]pyridin-2-yl]phenyl]pyrimidin-2-amine] | > 80% | > 80% | > 80% | –
Fc1cc2nc(-c3cccc(Nc4ccc(-c5ccncn5)cc4)c3)[nH]c2cc1F [Example 95, 3-(5,6-difluoro-1H-benzo[d]imidazol-2-yl)-N-(4-pyrimidin-4-ylphenyl)aniline] | 50 to 80% | – | – | –
c1cc(Nc2ncc(-c3cccnn3)cn2)cc(-c2nc3cnccc3[nH]2)c1 [Example 49, N-(3-{1H-imidazolo[4,5-c]pyridin-2-yl}phenyl)-5-(pyridazin-3-yl)pyrimidin-2-amine] | > 80% | > 80% | > 80% | –
FC(F)(F)Oc1ccc2nc(-c3cccc(Nc4ncc(-c5ccccn5)cn4)c3)[nH]c2c1 [Example 118, 5-(2-pyridyl)-N-[3-[6-(trifluoromethoxy)-1H-benzo[d]imidazol-2-yl]phenyl]pyrimidin-2-amine] | – | – | 50 to 80% | –
c1ccc(-c2ccc(Nc3cccc(-c4nc5ccccc5[nH]4)c3)cc2)cc1 [Example 19, N-[3-(1H-benzo[d]imidazol-2-yl)phenyl]-[1,1′-biphenyl]-4-amine] | 50 to 80% | 50 to 80% | – | –
c1cc(Nc2ncc(-c3cncnc3)cn2)cc(-c2nc3ccccc3[nH]2)c1 [Example 70, N-[3-(1H-benzo[d]imidazol-2-yl)phenyl]-[5,5′-bipyrimidin]-2-amine] | > 80% | 50 to 80% | – | –

SMILES | viability at 48 h, 1 µM [2] | viability at 48 h, 3 µM [2] | viability at 48 h, 10 µM [2] | also measured
CC(C)(C)c1ccc2nc(-c3cccc(Nc4ccc(-c5cccnn5)cc4)c3)[nH]c2c1 [Example 107, 3-(6-tert-butyl-1H-benzo[d]imidazol-2-yl)-N-(4-pyridazin-3-ylphenyl)aniline] | > 80% | – | – | –
Fc1cc2[nH]c(-c3cccc(Nc4ncc(-c5ccccn5)cn4)c3)nc2cn1 [Example 286, N-(3-(6-fluoro-1H-imidazo[4,5-c]pyridin-2-yl)phenyl)-5-(pyridin-2-yl)pyrimidin-2-amine] | – | – | > 80% | –
COc1ccc2nc(-c3cccc(Nc4ncc(-c5cccnn5)cn4)c3)[nH]c2c1 [Example 108, N-[3-(6-methoxy-1H-benzo[d]imidazol-2-yl)phenyl]-5-pyridazin-3-yl-pyrimidin-2-amine] | > 80% | > 80% | > 80% | –
c1cnc(-c2cnc(Nc3cccc(-c4nc5ccccc5[nH]4)c3)nc2)nc1 [Example 71, N-[3-(1H-benzo[d]imidazol-2-yl)phenyl]-[2,5′-bipyrimidin]-2′-amine] | > 80% | 50 to 80% | – | –
c1cc(Nc2ccc(-c3ccncn3)cn2)cc(-c2nc3ccccc3[nH]2)c1 [Example 68, N-[3-(1H-benzo[d]imidazol-2-yl)phenyl]-5-(pyrimidin-4-yl)pyridin-2-amine] | 50 to 80% | – | – | –
c1ccc(-c2ccc(Nc3cccc(-c4nc5ccccc5[nH]4)c3)cn2)cc1 [Example 80, N-[3-(1H-benzo[d]imidazol-2-yl)phenyl]-6-phenyl-pyridin-3-amine] | > 80% | 50 to 80% | – | –
Clc1cc2[nH]c(-c3cccc(Nc4ncc(-c5cscn5)cn4)c3)nc2cn1 [Example 303, N-(3-(6-chloro-1H-imidazo[4,5-c]pyridin-2-yl)phenyl)-5-(thiazol-4-yl)pyrimidin-2-amine] | – | – | 50 to 80% | –
c1cc(Nc2ccc(-c3ccnnc3)cc2)cc(-c2nc3ccccc3[nH]2)c1 [Example 94, 3-(1H-benzo[d]imidazol-2-yl)-N-(4-pyridazin-4-ylphenyl)aniline] | 50 to 80% | – | – | –
c1cnc(-c2ccc(Nc3cccc(-c4nc5ccccc5[nH]4)c3)nc2)nc1 [Example 69, N-(3-(1H-benzo[d]imidazol-2-yl)phenyl)-5-(pyrimidin-2-yl)pyridin-2-amine] | > 80% | – | – | –
FC(F)(F)Oc1ccc2nc(-c3cccc(Nc4ccc(-c5ccncn5)cc4)c3)[nH]c2c1 [Example 109, N-(4-pyrimidin-4-ylphenyl)-3-[6-(trifluoromethoxy)-1H-benzo[d]imidazol-2-yl]aniline] | 50 to 80% | – | – | –
FC(F)(F)c1ccc2nc(-c3cccc(Nc4ccc(-c5ncccn5)cn4)c3)[nH]c2c1 [Example 100, 5-pyrimidin-2-yl-N-[3-[6-(trifluoromethyl)-1H-benzo[d]imidazol-2-yl]phenyl]pyridin-2-amine] | 50 to 80% | – | – | –
Cc1cccc2nc(-c3cccc(Nc4ccc(-c5cccnn5)cc4)c3)[nH]c12 [Example 101, 3-(7-methyl-1H-benzo[d]imidazol-2-yl)-N-(4-pyridazin-3-ylphenyl)aniline] | > 80% | – | – | –
FC(F)(F)Oc1ccc2nc(-c3cccc(Nc4ncc(-c5cccnn5)cn4)c3)[nH]c2c1 [Example 295, 5-(pyridazin-3-yl)-N-(3-(6-(trifluoromethoxy)-1H-benzo[d]imidazol-2-yl)phenyl)pyrimidin-2-amine] | – | – | > 80% | –
FC(F)(F)Oc1cc2nc(-c3cccc(Nc4ncc(-c5cccnn5)cn4)c3)[nH]c2cc1Cl [Example 120, N-[3-[6-chloro-5-(trifluoromethoxy)-1H-benzo[d]imidazol-2-yl]phenyl]-5-pyridazin-3-yl-pyrimidin-2-amine] | – | – | > 80% | –
Fc1cc2nc(-c3cccc(Nc4ncc(-c5cccnn5)cn4)c3)[nH]c2cc1F [Example 99, N-[3-(5,6-difluoro-1H-benzo[d]imidazol-2-yl)phenyl]-5-pyridazin-3-yl-pyrimidin-2-amine] | > 80% | > 80% | > 80% | –
c1cc(Nc2ccc(C3CCCCC3)cc2)cc(-c2nc3ccccc3[nH]2)c1 [Example 97, 3-(1H-benzo[d]imidazol-2-yl)-N-(4-cyclohexylphenyl)aniline] | > 80% | 50 to 80% | – | –
